From patent US8232248B2, “Treatment of rheumatoid arthritis with mammal beta defensins” (Novozymes Adenium Biotech A/S, priority 2008, dated 2012) come the findings set out here.

Data set [1] relates to IL-10 production from human peripheral blood mononuclear cells (PBMC). The data set can be described thus: IL-10 production from PBMC stimulated with LPS, LTA or PGN, 24 h, Cytometric Bead Array. The note with it: Table 19. In kind it is cell-based. The protocol: (§1) Peripheral blood was drawn from healthy volunteers (with approval from the relevant ethical committee in Denmark). Heparinized blood was diluted 1/1 v/v with RPMI and were subjected to Ficoll density centrifugation within 2 h of drawing. Plasma was collected from the top from individual donors and was kept on ice until it was used at 2% in the culture medium (autologous culture medium). Isolated PBMC were resuspended in autologous culture medium and seeded in 96-well culture plates with 255.000 cells per well in a total of 200 μl. […] The concentrations used for stimulation were optimized on 3 different donors in initial experiments, for LPS two different concentrations were used to be sure to be on a cytokine level that is possible to modulate. In some experiments PBMC were treated with Dexamethason and Indomethacin alone and together with LPS or LTA as a control on downregulation of inflammatory cytokines. The supernatants were collected after incubation at 37° C. for 24 hours, and stored at −80° C. until cytokine measurement. Viability was measured by Alamar Blue (Biosource, DALL 1100) in all experiments and in some cases also by MTS (Promega) according to manufacturer's instruction and was in some experiments also judged by counting of the cells by a Nucleocounter.
(§2) Cytokine production in supernatants was measured by flow cytometry with a human inflammation cytometric bead array (CBA) according to manufacturer's instructions (BD) on a FACSarray flow cytometer. The following cytokines were measured: IL-8, IL-1β, IL-10, TNF, IL-12 p70, IL-6. In some experiments, cytokines were measured by ELISA kits from R&D systems (IL-10, TNF-α, IL-1β) according to the manufacturer' instruction.
(§3) All experiments were performed at least twice, with representative results shown. The data presented are expressed as mean plus/minus standard deviation (SD). […] Differences were considered significant for p<0.05.

Data set [2] deals with TNF production from mouse peripheral blood mononuclear cells (PBMC). The data set can be described thus: TNF production from mouse PBMC, mouse inflammation CBA. In kind it is cell-based. The note with it: Infliximab 1 μg/ml. The protocol: Mouse peripheral blood mononuclear cells were isolated from blood of ten NMRI mice. In short, heparinized blood was diluted 1/1 v/v with RPMI and subjected to Ficoll density centrifugation within 2 h of drawing. Plasma was collected from the top and discarded. Isolated PBMC were resuspended in culture medium (RPMI 1640 (Gibco, 42401) w/1% penicillin and streptomycin and 1% L-Glutamine) and seeded in 96-well culture plates with 115.500 cells per well in a total of 200 μl. […] The supernatants were collected after incubation at 37° C. for 24 hours, and stored at −80° C. until cytokine measurement.
Cytokine production in supernatants was measured by flow cytometry with a mouse inflammation cytometric bead array (CBA) according to manufacturer's instructions (BD) on a FACSarray flow cytometer.

Data set [3] relates to IL-1β production from human peripheral blood mononuclear cells (PBMC). The data set can be described thus: IL-1β production from PBMC stimulated with LPS or LTA, 24 h, Cytometric Bead Array. The data set is classed as cell-based. The following applies: Table 20. The protocol: as §1, §2, §3
Data set [4] has as its system TNF production from human peripheral blood mononuclear cells (PBMC). The data set can be described thus: TNF production from PBMC stimulated with LPS, LTA, PGN or Pam3CSK4, 24 h, Cytometric Bead Array. The following applies: Table 18. The data set is classed as cell-based. The protocol:
as §1, §2, §3
Example 3 was carried out essentially as described in Example 2. […]

Another data set concerns IL-23, human PBMC. The data set can be described thus: IL-23 in supernatants of human PBMC, ELISA. The data set is classed as cell-based. The following applies: Infliximab 1 μg/ml. As for the experimental part:
as §1
Moreover, the effect of rhBD2 on human monocyte-derived dendritic cells was also investigated.
Cell culture supernatants were collected and stored at −80° C. Amounts of IL-23 was measured by standard sandwich ELISA using commercially available antibodies and standards according to the manufacturer's protocols (eBioscience).
All experiments were performed at least twice, with representative results shown. The data presented are expressed as mean plus/minus standard deviation […]. […] Differences were considered significant for p<0.05.
A general note: In an ELISA, binding on a coated surface is turned into a signal by an enzyme label.

Another data set relates to PBMC. The data set can be described thus: PBMC viability, Alamar Blue. In kind it is cell-based, human. As for the experimental part:
as §1
For orientation: Resazurin is reduced to fluorescent resorufin, in cell work by metabolically active cells.

Setting [5] is: positive control, concentration not given, LPS 0.6 ng/ml.
Setting [6] is: positive control, concentration not given, LPS 20 ng/ml.
Setting [7] is: positive control, concentration not given, Medium, non-treated 0.
[8] abbreviates: test compound 1 μg/ml, LPS 0.6 ng/ml.
[9] abbreviates: test compound 1 μg/ml, LPS 0.6 ng/ml, non-treated 66.
Where [10] appears, read: test compound 1 μg/ml, LPS 20 ng/ml.
The mark [11] stands for this setting: test compound 1 μg/ml, Medium, non-treated 0.
The mark [12] stands for this setting: test compound 1 μg/ml, LPS 0.6 ng/ml, non-treated 741.
Where [13] appears, read: test compound 1 μg/ml, LPS 20 ng/ml, non-treated 2544.
Where [14] appears, read: test compound 1 μg/ml, Medium, non-treated 1.
[15] abbreviates: test compound 10 μg/ml, Medium, non-treated 0.
Setting [16] is: test compound 10 μg/ml, LPS 0.6 ng/ml.
Where [17] appears, read: test compound 10 μg/ml, LPS 20 ng/ml.

As for “Infliximab: anti-inflammatory compound included as positive control on downregulation of TNF [reference compound]”, the “IL-10 % of control” value worked out at 69% in data set [1] (setting [5]) and 56% in data set [1] (setting [6]). Besides, the IL-10 in data set [1] (positive control, concentration not given, LPS 0.6 ng/ml, non-treated 66) came out at 46 pg/mL; in data set [1] (positive control, concentration not given, LPS 20 ng/ml, non-treated 111), 63 pg/mL; in data set [1] (setting [7]), 0 pg/mL. Further, the TNF in data set [2] (LPS 20 ng/ml, untreated 2063) is 2119 pg/mL; in data set [2] (Medium, untreated 578), 530 pg/mL; in data set [4] (positive control, concentration not given, LPS 0.6 ng/ml, non-treated 728) it was 0 pg/mL; in data set [4] (positive control, concentration not given, LPS 20 ng/ml, non-treated 2164), 0 pg/mL; in data set [4] (positive control, concentration not given, Medium, non-treated 1), 0 pg/mL. Also, the “IL-1β % of control” value came out at 86% in data set [3] (setting [5]) and 106% in data set [3] (setting [6]). The IL-1β in data set [3] (positive control, concentration not given, LPS 0.6 ng/ml, non-treated 741) came out at 636 pg/mL; in data set [3] (positive control, concentration not given, LPS 20 ng/ml, non-treated 2544), 2704 pg/mL; in data set [3] (setting [7]), 0 pg/mL. The “TNF % of control” value in data set [4] (setting [5]) and in data set [4] (setting [6]) was 0% each time. The IL-23 in the data set on IL-23, human PBMC (Control (medium), non-treated 257) came out at 227 pg/mL; in the data set with IL-23, human PBMC (LPS 0.6 ng/ml, non-treated 553), 356 pg/mL; with IL-23, human PBMC (LPS 20 ng/ml, non-treated 510), 373 pg/mL; in the data set with IL-23, human PBMC (LTA 5 μg/ml, non-treated 762), 349 pg/mL.

As for “hBD3: human beta defensin 3, SEQ ID NO:3, obtained from Peptide Institute Inc.”, the entries for the “IL-10 % of control” value in data set [1] (setting [8]) and in data set [1] (setting [10]) were 107% and 137%, respectively. Moreover, the IL-10 is 71 pg/mL in data set [1] (setting [9]) and 0 pg/mL in data set [1] (setting [11]). Also, in the data set with PBMC (10 μg/ml and 40 μg/ml), the “Toxicity to the cells” value was “toxic to the cells”. Moreover, the “IL-1β % of control” value in data set [3] (setting [8]) stood at 45%; in data set [3] (setting [10]) it was 22%. Also, the IL-1β was determined as 331 pg/mL in data set [3] (setting [12]), 568 pg/mL in data set [3] (setting [13]) and 0 pg/mL in data set [3] (setting [11]). The figures for the “TNF % of control” value in data set [4] (setting [8]) and in data set [4] (setting [10]) were 73% and 21%, respectively. Further, the TNF in data set [4] (test compound 1 μg/ml, LPS 0.6 ng/ml, non-treated 728) turned out to be 528 pg/mL; in data set [4] (test compound 1 μg/ml, LPS 20 ng/ml, non-treated 2164), 451 pg/mL; in data set [4] (setting [14]) it was 0 pg/mL.

With “hBD4 variant: consists of amino acids 3-39 of hBD4, SEQ ID NO:5 (ELDRICGYGTARCRKKCRSQEYRIGRCPNTYACCLRK; hBD-4 variant consisting of amino acids 3-39 of SEQ ID NO4)”, the “Secretion of IL-10” value in data set [1] (PBMC with LPS) is “significantly and dose-dependently enhanced”. Moreover, the IL-10 in data set [1] (setting [9]) is 90 pg/mL; in data set [1] (setting [11]) it was 0 pg/mL; in data set [1] (test compound 10 μg/ml, LPS 0.6 ng/ml, non-treated 66), 92 pg/mL; in data set [1] (setting [15]) it was 0 pg/mL. Further, the “Toxicity to the cells” value in the data set on PBMC (40 μg/ml) is recorded as “toxic to the cells”. In addition, the “IL-1β % of control” value came to 39% in data set [3] (setting [8]), 40% in data set [3] (setting [10]), 22% in data set [3] (setting [16]) and 18% in data set [3] (setting [17]). Besides, the IL-1β in data set [3] (setting [12]) is 286 pg/mL; in data set [3] (setting [13]), 1004 pg/mL; in data set [3] (setting [11]), 0 pg/mL; in data set [3] (test compound 10 μg/ml, LPS 0.6 ng/ml, non-treated 741), 163 pg/mL; in data set [3] (test compound 10 μg/ml, LPS 20 ng/ml, non-treated 2544), 463 pg/mL; in data set [3] (setting [15]), 0 pg/mL. Moreover, the “TNF % of control” value in data set [4] (setting [8]) is 64%; in data set [4] (setting [10]), 36%; in data set [4] (setting [16]), 29%; in data set [4] (setting [17]) it was 6%. In addition, the TNF is 0 pg/mL in data set [4] (setting [14]) and 0 pg/mL in data set [4] (test compound 10 μg/ml, Medium, non-treated 1).
